Reference: patent US4839350A, “Cephalosporin compounds and the production thereof” (Meiji Seika Kaisha, Ltd., priority 1984, dated 1989)
Structures can show the parent of a compound that is named as a salt. Where two headings read alike, the source gives them in different places.

Key:
Assay type in all cases: cell-based
[1] = test system: Staphylococcus aureus 209P JC-1; assay: MIC by agar-dilution method, Staphylococcus aureus 209P JC-1
Source text: (§1) The compounds of this invention are all novel compounds.

[2] = test system: Staphylococcus aureus Smith; assay: MIC by agar-dilution method, Staphylococcus aureus Smith
Source text: as §1

[3] = test system: Escherichia coli NIHJ JC-2; assay: MIC by agar-dilution method, Escherichia coli NIHJ JC-2
Source text: as §1

[4] = test system: Klebsiella pneumoniae PCI 602; assay: MIC by agar-dilution method, Klebsiella pneumoniae PCI 602
Source text: as §1

Proteus mirabilis GN 79 = assay: MIC by agar-dilution method, Proteus mirabilis GN 79
Source text: as §1

Proteus vulgaris GN 76 = assay: MIC by agar-dilution method, Proteus vulgaris GN 76
Source text: as §1

Proteus rettgeri GN 624 = assay: MIC by agar-dilution method, Proteus rettgeri GN 624
Source text: as §1

[5] = test system: Salmonella typhimurium LT-2; assay: MIC by agar-dilution method, Salmonella typhimurium LT-2
Source text: as §1

[6] = test system: Serratia marcescens No. 1; assay: MIC by agar-dilution method, Serratia marcescens No. 1
Source text: as §1

[7] = test system: Pseudomonas aeruginosa MB 3833; assay: MIC by agar-dilution method, Pseudomonas aeruginosa MB 3833
Source text: as §1

[8] = Providencia rettgeri, GN624, read-out: MIC.
[9] = Salmonella enterica, read-out: MIC.

Row | Structure (SMILES) | MIC ([1]; read-out: MIC.) | MIC ([2]; read-out: MIC.) | MIC ([3]; NIHJJC2, read-out: MIC.) | MIC ([4]; PCI602, read-out: MIC.) | MIC (Proteus mirabilis GN 79; GN79, read-out: MIC.) | MIC (Proteus vulgaris GN 76; GN76, read-out: MIC.) | MIC (Proteus rettgeri GN 624; [8]) | MIC [5, 9] | MIC ([6]; read-out: MIC.) | MIC ([7]; MB3833, read-out: MIC.) | MIC [1] | MIC [2] | MIC [3] | MIC [4] | MIC (Proteus mirabilis GN 79) | MIC (Proteus vulgaris GN 76) | MIC (Proteus rettgeri GN 624) | MIC [5] | MIC [6] | MIC [7]
1 | CO/N=C(\C(=O)NC1C(=O)N2C(C(=O)O)=C(C=Cc3ccccc3F)CSC12)c1csc(N)n1 (mixture of isomers) [Example 14, 7-[2-methoxyimino-2-(2-aminothiazol-4-yl)acetamido]-3-[2-(o-fluorophenyl)vinyl]-3-cephem-4-carboxylic acid trifluoroacetate (syn-isomer, mixed cis- and trans-isomers)] | 0.2 µg/mL | 0.39 µg/mL | 3.13 µg/mL | 3.13 µg/mL | 0.2 µg/mL | 0.2 µg/mL | 1.56 µg/mL | 3.13 µg/mL | 1.56 µg/mL | > 50 µg/mL |  |  |  |  |  |  |  |  |  | 
2 | Cc1ncsc1C=CC1=C(C(=O)O)N2C(=O)C(NC(=O)C(=NOCC(=O)O)c3csc(N)n3)C2SC1.O=C(O)C(F)(F)F (single isomer, unassigned) [Example 16, 7-[2-carboxymethoxyimino-2-(2-aminothiazol-4-yl)acetamido]-3-[2-(4-methylthiazol-5yl)vinyl]-3-cephem-4-carboxylic acid trifluoroacetate (syn-isomer, trans-isomer)] |  |  |  |  |  |  |  |  |  |  | 3.13 µg/mL | 3.13 µg/mL | 0.39 µg/mL | 0.20 µg/mL | 0.05 µg/mL | ≤ 0.025 µg/mL | 1.56 µg/mL | 0.10 µg/mL | 0.05 µg/mL | 12.5 µg/mL
3 | CO/N=C(\C(=O)NC1C(=O)N2C(C(=O)O)=C(/C=C\c3scnc3C)CSC12)c1csc(N)n1 (stereo not drawn) [Example 10, 7-[2-methoxyimino-2-(2-aminothiazol-4-yl)acetamido]-3-[2-(4-methylthiazol-5-yl)vinyl]-3-cephem-4-carboxylic acid trifluoroacetate (cyn-isomer, cis-isomer)] | 0.2 µg/mL | 0.39 µg/mL | 0.39 µg/mL | 0.39 µg/mL | 0.39 µg/mL | 0.2 µg/mL | 3.13 µg/mL | 0.39 µg/mL | 0.39 µg/mL | 25 µg/mL |  |  |  |  |  |  |  |  |  | 
4 | CO/N=C(\C(=O)NC1C(=O)N2C(C(=O)O)=C(/C=C\c3ccccc3)CSC12)c1csc(N)n1 (stereo not drawn) [Example 11, 7-[2-methoxyimino-2-(2-aminothiazol-4-yl)acetamido]-3-(2-phenylvinyl)-3-cephem-4-carboxylic acid trifluoroacetate (cyn-isomer, cis-isomer)] | 0.78 µg/mL | 0.78 µg/mL | 3.13 µg/mL | 3.13 µg/mL | 0.78 µg/mL | 0.78 µg/mL | 3.13 µg/mL | 6.25 µg/mL | 1.56 µg/mL | > 50 µg/mL |  |  |  |  |  |  |  |  |  | 
5 | CO/N=C(\C(=O)NC1C(=O)N2C(C(=O)O)=C(/C=C\c3ccco3)CSC12)c1csc(N)n1 (stereo not drawn) [Example 12, 7-[2-methoxyimino-2-(2-aminothiazol-4-yl)acetamido]-3-[2-(2-furyl)vinyl]-3-cephem-4-carboxylic acid sodium salt (cyn-isomer, cis-isomer)] | 0.39 µg/mL | 0.78 µg/mL | 3.13 µg/mL | 1.56 µg/mL | 0.78 µg/mL | 0.39 µg/mL | 3.13 µg/mL | 1.56 µg/mL | 1.56 µg/mL | > 50 µg/mL |  |  |  |  |  |  |  |  |  | 
6 | CO/N=C(\C(=O)NC1C(=O)N2C(C(=O)O)=C(/C=C/c3ccc([N+](=O)[O-])o3)CSC12)c1csc(N)n1 (stereo not drawn) [Example 13, 7-[2-methoxyimino-2-(2-aminothiazol-4-yl)acetamido]-3-[2-(5-nitor-2-furyl)vinyl]-3-cephem-4-carboxylic acid sodium salt (syn-isomer, trans-isomer)] | 6.25 µg/mL | 6.25 µg/mL | 6.25 µg/mL | 3.13 µg/mL | 12.5 µg/mL | 3.13 µg/mL | 3.13 µg/mL | 6.25 µg/mL | 6.25 µg/mL | > 50 µg/mL |  |  |  |  |  |  |  |  |  | 
7 | CO/N=C(\C(=O)NC1C(=O)N2C(C(=O)O)=C(C=Cc3sc[n+](C)c3C)CSC12)c1csc(N)n1 (stereo not drawn) [Example 15, 7-[2-methoxyimino-2-(2-aminothiazol-4-yl)acetamido]-3-[2-(3,4-dimethyl-5-thiazolio)vinyl]-3-cephem-4-carboxylic acid di-trifluoroacetate (syn-isomer)] | 0.78 µg/mL | 0.78 µg/mL | 0.1 µg/mL | 0.1 µg/mL | 0.78 µg/mL | 0.39 µg/mL | 0.39 µg/mL | 0.1 µg/mL | 0.1 µg/mL | > 50 µg/mL |  |  |  |  |  |  |  |  |  | 
8 | CO/N=C(\C(=O)NC1C(=O)N2C(C(=O)O)=C(/C=C/c3scnc3C)CSC12)c1csc(N)n1 (stereo not drawn) [Example 18, 7-[2-methoxyimino-2-(2-aminothiazol-4-yl)acetamido-3-[2-(4-methylthiazol-5-yl)vinyl]-3cephem-4-carboxylic acid sodium salt (syn-isomer, trans-isomer)] | 0.39 µg/mL | 0.39 µg/mL | 0.78 µg/mL | 0.39 µg/mL |  | 0.1 µg/mL | 0.39 µg/mL | 0.78 µg/mL | 0.39 µg/mL | 50 µg/mL |  |  |  |  |  |  |  |  |  | 
9 | CO/N=C(\C(=O)NC1C(=O)N2C(C(=O)O)=C(/C=C\c3scnc3Cl)CSC12)c1csc(N)n1 (stereo not drawn) [Example 21, 7-[2-methoxyimino-2-(2-aminothiazol-4-yl)acetamido]-3-[2-(4-chlorothiazol-5-yl)vinyl]-3-cephem-4-carboxylic acid (syn-isomer, cis-isomer) sodium salt] | 0.1 µg/mL | 0.2 µg/mL | 0.2 µg/mL | 0.1 µg/mL | 0.2 µg/mL | 0.1 µg/mL | 1.56 µg/mL | 0.2 µg/mL | 0.2 µg/mL | 12.5 µg/mL |  |  |  |  |  |  |  |  |  | 
10 | CO/N=C(\C(=O)NC1C(=O)N2C(C(=O)O)=C(/C=C/c3cnc(C)s3)CSC12)c1csc(N)n1 (stereo not drawn) [Example 30, 7-[2-methoxyimino-2-(2-aminothiazol-4-yl)acetamido]-3-[2-(2-methylthiazol-5-yl)vinyl]-3-cephem-4-carboxylic acid trifluoroacetate (syn-isomer, trans-isomer)] | 0.78 µg/mL | 1.56 µg/mL | 0.78 µg/mL | 0.78 µg/mL | 0.2 µg/mL | 0.1 µg/mL | 0.2 µg/mL | 0.39 µg/mL | 0.2 µg/mL | > 50 µg/mL |  |  |  |  |  |  |  |  |  | 
11 | CO/N=C(\C(=O)NC1C(=O)N2C(C(=O)O)=C(/C=C\c3cnc(C)s3)CSC12)c1csc(N)n1 (stereo not drawn) [Example 31, 7-[2-methoxyimino-2-(2-aminothiazol-4-yl)acetamido]-3-[2-(2-methylthiazol-5-yl)vinyl]-3-cephem-4-carboxylic acid trifluoroacetate (syn-isomer, cis-isomer)] | 0.78 µg/mL | 1.56 µg/mL | 1.56 µg/mL | 1.56 µg/mL | 0.78 µg/mL | 0.2 µg/mL | 0.78 µg/mL | 1.56 µg/mL | 0.78 µg/mL | > 50 µg/mL |  |  |  |  |  |  |  |  |  | 
12 | CO/N=C(\C(=O)NC1C(=O)N2C(C(=O)O)=C(/C=C\c3cscn3)CSC12)c1csc(N)n1 (stereo not drawn) [Example 32, 7-[2-methoxyimino-2-(2-aminothiazol-4-yl)acetamido]-3-[2-(thiazol-4-yl)vinyl]-3-cephem-4-carboxylic acid sodium salt (syn-isomer, cis-isomer)] | 0.39 µg/mL | 0.78 µg/mL | 1.56 µg/mL | 1.56 µg/mL |  | 0.1 µg/mL | 6.25 µg/mL | 0.78 µg/mL | 0.78 µg/mL | 100 µg/mL |  |  |  |  |  |  |  |  |  | 
13 | CO/N=C(\C(=O)NC1C(=O)N2C(C(=O)O)=C(/C=C\c3cncs3)CSC12)c1csc(N)n1 (stereo not drawn) [Example 33, 7-[2-methoxyimino-2-(2-aminothiazol-4-yl)acetamido]-3-[2-(thiazol-5-yl)vinyl]-3-cephem-4-carboxylic acid sodium salt (syn-isomer, cis-isomer)] | 0.39 µg/mL | 0.39 µg/mL | 0.39 µg/mL | 0.2 µg/mL | 0.39 µg/mL | 0.1 µg/mL | 0.78 µg/mL | 0.39 µg/mL | 0.39 µg/mL | 25 µg/mL |  |  |  |  |  |  |  |  |  | 
